Values after ≈ are worked out from the molar mass of the structure shown. Values belong to the compound of their own block, whether it stands above or below them.
Columns and labels:
Ochrobactrum [1] = assay: Antibacterial activity against Ochrobactrum at 1 mg/ml after 24 hr by agar well diffusion assay; assay type: functional; conditions: read-out: IZ
Pantoea dispersa [2] = assay: Antibacterial activity against Pantoea dispersa at 1 mg/ml after 24 hr by agar well diffusion assay; assay type: functional; conditions: read-out: IZ
Enterococcus [3] = assay: Antibacterial activity against Enterococcus after 18 to 20 hr by serial broth dilution method; assay type: functional
Staphylococcus aureus [4] = assay: Antibacterial activity against Staphylococcus aureus after 18 to 20 hr by serial broth dilution method; assay type: functional
Ochrobactrum [5] = assay: Antibacterial activity against Ochrobactrum after 18 to 20 hr by serial broth dilution method; assay type: functional
Pantoea dispersa [6] = assay: Antibacterial activity against Pantoea dispersa after 18 to 20 hr by serial broth dilution method; assay type: functional
Staphylococcus aureus [7] = assay: Antibacterial activity against Staphylococcus aureus at 1 mg/ml after 24 hr by agar well diffusion assay; assay type: functional; conditions: read-out: IZ
Enterococcus [8] = assay: Antibacterial activity against Enterococcus at 1 mg/ml after 24 hr by agar well diffusion assay; assay type: functional; conditions: read-out: IZ
[9] = test system: Radical scavenging activity; assay: Antioxidant activity assessed as DPPH radical scavenging activity […] after 30 min by spectrophotometric analysis; assay type: functional
[10] = Metal chelating activity assessed as inhibition of Fe2+-ferrozine complex at 0.5 to 2 mg/ml after 10 min by spectrophotometric analysis; assay type: physicochemical

SMILES: O=C(Oc1cccc2ccccc12)c1cc(-c2cc3ccccc3o2)nc2ccccc12
- zone of inhibition at 1000 µg/mL (Ochrobactrum [1]): 11 mm
- zone of inhibition at 1000 µg/mL (Pantoea dispersa [2]): 15 mm
- MIC (Enterococcus [3]): 500 µg/mL (≈ 1200 µM)
- MIC (Staphylococcus aureus [4]): 250 µg/mL (≈ 602 µM)
- MIC (Ochrobactrum [5]): 500 µg/mL (≈ 1200 µM)
- MIC (Pantoea dispersa [6]): 120 µg/mL (≈ 289 µM)
- zone of inhibition at 1000 µg/mL (Staphylococcus aureus [7]): 14 mm
- zone of inhibition at 1000 µg/mL (Enterococcus [8]): 13 mm
- IC50 [9]: 45.6 µg/mL (≈ 110 µM)
- inhibition (INH) [10]: Active

SMILES: O=C(Oc1ccc2ccccc2c1)c1cc(-c2cc3ccccc3o2)nc2ccccc12
- zone of inhibition at 1000 µg/mL (Ochrobactrum [1]): 12 mm
- zone of inhibition at 1000 µg/mL (Pantoea dispersa [2]): 12 mm
- MIC (Enterococcus [3]): > 500 µg/mL
- MIC (Staphylococcus aureus [4]): 500 µg/mL (≈ 1200 µM)
- MIC (Ochrobactrum [5]): > 500 µg/mL
- MIC (Pantoea dispersa [6]): 250 µg/mL (≈ 602 µM)
- zone of inhibition at 1000 µg/mL (Staphylococcus aureus [7]): 12 mm
- zone of inhibition at 1000 µg/mL (Enterococcus [8]): 10 mm
- IC50 [9]: 15.6 µg/mL (≈ 37.5 µM)
- inhibition (INH) [10]: Active

SMILES: O=C(c1cc(-c2cc3ccccc3o2)nc2ccccc12)N1CCCCC1
- zone of inhibition at 1000 µg/mL (Ochrobactrum [1]): 9 mm
- zone of inhibition at 1000 µg/mL (Pantoea dispersa [2]): 10 mm
- MIC (Enterococcus [3]): > 500 µg/mL
- MIC (Staphylococcus aureus [4]): > 500 µg/mL
- MIC (Ochrobactrum [5]): > 500 µg/mL
- MIC (Pantoea dispersa [6]): > 500 µg/mL
- zone of inhibition at 1000 µg/mL (Staphylococcus aureus [7]): 11 mm
- zone of inhibition at 1000 µg/mL (Enterococcus [8]): 7 mm

SMILES: Cc1nccn1C(=O)c1cc(-c2cc3ccccc3o2)nc2ccccc12
- zone of inhibition at 1000 µg/mL (Ochrobactrum [1]): 12 mm
- zone of inhibition at 1000 µg/mL (Pantoea dispersa [2]): 15 mm
- MIC (Enterococcus [3]): > 500 µg/mL
- MIC (Staphylococcus aureus [4]): > 500 µg/mL
- MIC (Ochrobactrum [5]): 250 µg/mL (≈ 707 µM)
- MIC (Pantoea dispersa [6]): 250 µg/mL (≈ 707 µM)
- zone of inhibition at 1000 µg/mL (Staphylococcus aureus [7]): 8 mm
- zone of inhibition at 1000 µg/mL (Enterococcus [8]): 9 mm

SMILES: O=C(c1cc(-c2cc3ccccc3o2)nc2ccccc12)N1CCOCC1
- zone of inhibition at 1000 µg/mL (Ochrobactrum [1]): 11 mm
- zone of inhibition at 1000 µg/mL (Pantoea dispersa [2]): 13 mm
- MIC (Enterococcus [3]): 120 µg/mL (≈ 335 µM)
- MIC (Staphylococcus aureus [4]): > 500 µg/mL
- MIC (Ochrobactrum [5]): 500 µg/mL (≈ 1400 µM)
- MIC (Pantoea dispersa [6]): 250 µg/mL (≈ 698 µM)
- zone of inhibition at 1000 µg/mL (Staphylococcus aureus [7]): 10 mm
- zone of inhibition at 1000 µg/mL (Enterococcus [8]): 13 mm

SMILES: O=C(Oc1ccccc1)c1cc(-c2cc3ccccc3o2)nc2ccccc12
- zone of inhibition at 1000 µg/mL (Ochrobactrum [1]): 16 mm
- zone of inhibition at 1000 µg/mL (Pantoea dispersa [2]): 18 mm
- MIC (Enterococcus [3]): 120 µg/mL (≈ 328 µM)
- MIC (Staphylococcus aureus [4]): 60 µg/mL (≈ 164 µM)
- MIC (Ochrobactrum [5]): 60 µg/mL (≈ 164 µM)
- MIC (Pantoea dispersa [6]): 120 µg/mL (≈ 328 µM)
- zone of inhibition at 1000 µg/mL (Staphylococcus aureus [7]): 16 mm
- zone of inhibition at 1000 µg/mL (Enterococcus [8]): 12 mm
- inhibition (INH) [10]: Active

SMILES: Cc1ccc(OC(=O)c2cc(-c3cc4ccccc4o3)nc3ccccc23)cc1
- zone of inhibition at 1000 µg/mL (Ochrobactrum [1]): 20 mm
- zone of inhibition at 1000 µg/mL (Pantoea dispersa [2]): 13 mm
- MIC (Enterococcus [3]): 60 µg/mL (≈ 158 µM)
- MIC (Staphylococcus aureus [4]): 60 µg/mL (≈ 158 µM)
- MIC (Ochrobactrum [5]): 60 µg/mL (≈ 158 µM)
- MIC (Pantoea dispersa [6]): 250 µg/mL (≈ 659 µM)
- zone of inhibition at 1000 µg/mL (Staphylococcus aureus [7]): 19 mm
- zone of inhibition at 1000 µg/mL (Enterococcus [8]): 19 mm
- IC50 [9]: 49.5 µg/mL (≈ 130 µM)
- inhibition (INH) [10]: Active

SMILES: O=C(Oc1ccc(Br)cc1)c1cc(-c2cc3ccccc3o2)nc2ccccc12
- zone of inhibition at 1000 µg/mL (Ochrobactrum [1]): 15 mm
- zone of inhibition at 1000 µg/mL (Pantoea dispersa [2]): 14 mm
- MIC (Enterococcus [3]): 60 µg/mL (≈ 135 µM)
- MIC (Staphylococcus aureus [4]): 60 µg/mL (≈ 135 µM)
- MIC (Ochrobactrum [5]): 250 µg/mL (≈ 563 µM)
- MIC (Pantoea dispersa [6]): 500 µg/mL (≈ 1130 µM)
- zone of inhibition at 1000 µg/mL (Staphylococcus aureus [7]): 18 mm
- zone of inhibition at 1000 µg/mL (Enterococcus [8]): 16 mm
- inhibition (INH) [10]: Active

SMILES: CC1(C)S[C@@H]2[C@H](NC(=O)[C@H](N)c3ccccc3)C(=O)N2[C@H]1C(=O)O [AMPICILLIN]
- zone of inhibition at 1000 µg/mL (Ochrobactrum [1]): 21 mm
- zone of inhibition at 1000 µg/mL (Pantoea dispersa [2]): 20 mm
- MIC (Enterococcus [3]): 60 µg/mL (≈ 172 µM)
- MIC (Staphylococcus aureus [4]): 60 µg/mL (≈ 172 µM)
- MIC (Ochrobactrum [5]): 60 µg/mL (≈ 172 µM)
- MIC (Pantoea dispersa [6]): 60 µg/mL (≈ 172 µM)
- zone of inhibition at 1000 µg/mL (Staphylococcus aureus [7]): 20 mm
- zone of inhibition at 1000 µg/mL (Enterococcus [8]): 24 mm

Now from value to compound, other results behind:

- MIC (Enterococcus [3]): 60 µg/mL (≈ 158 µM)
- MIC (Staphylococcus aureus [4]): 60 µg/mL (≈ 158 µM)
- MIC (Ochrobactrum [5]): 25 µg/mL (≈ 65.9 µM)
- MIC (Pantoea dispersa [6]): 120 µg/mL (≈ 316 µM)
SMILES: Cc1ccccc1OC(=O)c1cc(-c2cc3ccccc3o2)nc2ccccc12
- zone of inhibition at 1000 µg/mL (Ochrobactrum [1]): 18 mm
- zone of inhibition at 1000 µg/mL (Pantoea dispersa [2]): 19 mm
- zone of inhibition at 1000 µg/mL (Staphylococcus aureus [7]): 17 mm
- zone of inhibition at 1000 µg/mL (Enterococcus [8]): 16 mm

- MIC (Enterococcus [3]): 500 µg/mL (≈ 1250 µM)
- MIC (Staphylococcus aureus [4]): 500 µg/mL (≈ 1250 µM)
- MIC (Ochrobactrum [5]): 250 µg/mL (≈ 625 µM)
- MIC (Pantoea dispersa [6]): 120 µg/mL (≈ 300 µM)
- IC50 [9]: > 100 µg/mL
SMILES: O=C(Oc1ccccc1Cl)c1cc(-c2cc3ccccc3o2)nc2ccccc12
- zone of inhibition at 1000 µg/mL (Ochrobactrum [1]): 14 mm
- zone of inhibition at 1000 µg/mL (Pantoea dispersa [2]): 16 mm
- zone of inhibition at 1000 µg/mL (Staphylococcus aureus [7]): 12 mm
- zone of inhibition at 1000 µg/mL (Enterococcus [8]): 10 mm

- MIC (Enterococcus [3]): 120 µg/mL (≈ 300 µM)
- MIC (Staphylococcus aureus [4]): 120 µg/mL (≈ 300 µM)
- MIC (Ochrobactrum [5]): 60 µg/mL (≈ 150 µM)
- MIC (Pantoea dispersa [6]): 60 µg/mL (≈ 150 µM)
- inhibition (INH) [10]: Active
SMILES: O=C(Oc1ccc(Cl)cc1)c1cc(-c2cc3ccccc3o2)nc2ccccc12
- zone of inhibition at 1000 µg/mL (Ochrobactrum [1]): 17 mm
- zone of inhibition at 1000 µg/mL (Pantoea dispersa [2]): 18 mm
- zone of inhibition at 1000 µg/mL (Staphylococcus aureus [7]): 17 mm
- zone of inhibition at 1000 µg/mL (Enterococcus [8]): 14 mm

- MIC (Enterococcus [3]): 250 µg/mL (≈ 576 µM)
- MIC (Staphylococcus aureus [4]): 250 µg/mL (≈ 576 µM)
- MIC (Ochrobactrum [5]): 120 µg/mL (≈ 276 µM)
- MIC (Pantoea dispersa [6]): 120 µg/mL (≈ 276 µM)
SMILES: O=C(Oc1ccc(Cl)cc1Cl)c1cc(-c2cc3ccccc3o2)nc2ccccc12
- zone of inhibition at 1000 µg/mL (Ochrobactrum [1]): 14 mm
- zone of inhibition at 1000 µg/mL (Pantoea dispersa [2]): 16 mm
- zone of inhibition at 1000 µg/mL (Staphylococcus aureus [7]): 14 mm
- zone of inhibition at 1000 µg/mL (Enterococcus [8]): 11 mm

- MIC (Enterococcus [3]): 500 µg/mL (≈ 1070 µM)
- MIC (Staphylococcus aureus [4]): 500 µg/mL (≈ 1070 µM)
- MIC (Ochrobactrum [5]): 500 µg/mL (≈ 1070 µM)
- MIC (Pantoea dispersa [6]): 250 µg/mL (≈ 533 µM)
- IC50 [9]: 24.34 µg/mL (≈ 51.9 µM)
SMILES: O=C(Oc1c(Cl)cc(Cl)cc1Cl)c1cc(-c2cc3ccccc3o2)nc2ccccc12
- zone of inhibition at 1000 µg/mL (Ochrobactrum [1]): 12 mm
- zone of inhibition at 1000 µg/mL (Pantoea dispersa [2]): 14 mm
- zone of inhibition at 1000 µg/mL (Staphylococcus aureus [7]): 12 mm
- zone of inhibition at 1000 µg/mL (Enterococcus [8]): 10 mm
